Data taken from paper PMC8712301, “Novel CYP11B-ligand [^123/131I]IMAZA as promising theranostic tool for adrenocortical tumors: comprehensive preclinical characterization and first clinical experience” (European Journal of Nuclear Medicine and Molecular Imaging, 2021).

Legend:
advanced ACC = test: Diagnostic imaging and biokinetics with [123I]IMTO and [123I]IMAZA in patients with advanced ACC; type: in vivo, human; set-up: AUC (time integral of the uptake function): concentration or dose not given beside the values
Experimental: Three patients (#1, #2, and #3) were investigated by [^123I]IMAZA (administered doses, 117, 163, and 182 MBq, respectively) and subsequently by [^123I]IMTO (176, 169, and 146 MBq, respectively). The time interval between the imaging studies was at least 5 days. Scintigraphic imaging was performed using a Siemens Symbia dual-head gamma camera equipped with medium-energy parallel-hole collimators. Activity concentration was measured in whole blood samples drawn at 2 min, 5 min, 15 min, 1 h, 2.5 h, 5 h, and 23 h after the administration. Plasma activity was analyzed in patient #1.

[1] = tested on: human adrenocortical and non-adrenocortical tissue cryosections; test: Autoradiographic binding to human tissue cryosections
Experimental: Human tissues were quick frozen in liquid nitrogen to block further biological processes including protein degradation and stored at –80 °C. Frozen samples from adrenocortical carcinoma (ACC; n = 3), aldosterone-producing adenoma (APA; n = 2), and cortisol-producing adenoma (CPA; n = 2), normal adrenal, kidney, and liver were sectioned into 20-µm-thick tissue slices, thaw-mounted onto Superfrost slides (PAP PEN, Zymed® Laboratories) and stored at –80 °C until processing. For the experimental set up, the tissue slices were pre-incubated for 5 min at room temperature with buffer solution (pH 7.4, 50 mM Tris). Afterwards, the slices were directly incubated with TRIS HCl buffer solution containing 2% BSA. After 1-h blocking, slides were treated with 0.1 MBq of the different compounds. As controls, slides were incubated with 0.1 MBq of the compounds in 10 µM of the non-radioactive compound to assess binding specificity. In the following, slides were washed twice with 50 mM Tris HCl buffer solution (pH 7.4). For exposure, samples were placed on Phosphor Imager plates for 30 min in dedicated lead-shielded cassettes. Autoradiographic images were analyzed with a CR35BIO Image plate scanner, and data analysis was performed with Amide software version 0.9.0.
Fig. 5 Ex vivo imaging of normal adrenal gland, adrenocortical tumors, and control tissue (kidney, liver). Autoradiographic visualization of [^125I]IMTO and [^125I]IMAZA accumulation in the normal adrenal gland, in adrenocortical tumors (ACC, APA, CPA), kidney, and liver as control tissue (sections with 20 µm slice thickness) (representative example). […] The red circles show the position of the organs that are not shown in the imaging. A = 0.1 MBq tracer, B = 0.1 MBq tracer plus non-radioactive 10 µM inhibitor

NCI-H295 cells [2] = test: Cellular subfractionation of NCI-H295 cells exposed to 125I-labeled tracers; type: cell-based, human
Experimental: (§1) NCI-H295 cells (n = 250,000 per vial) were incubated with 0.1 MBq of the respective ^125I-labeled tracer at 37 °C, 5% CO2. For the blocking experiment, the cells were co-incubated with etomidate. Aliquots were taken and immediately placed into a 4 °C ice bath. After 5 min, the solution was centrifuged and rinsed twice with PBS/0.5% Tween 80, and the collected rinse solution was measured in a gamma counter. Assays were performed in triplicates. The intracellular distribution of the respective ^125I-labeled inhibitors and the specific binding to mitochondrial membranes were verified using a commercially available kit (Qiagen Qproteome Mitochondria isolation).
Fig. 3 a In vitro uptake kinetics of [^125I]IMTO, [^125I]IMAZA, [^125I]3, and [^125I]4 in NCI-H295 cells. b Cellular uptake of [^125I]IMTO, [^125I]IMAZA, [^125I]3, and [^125I]4 in NCI-H295 cells with and without co-incubation with etomidate. Cells were incubated with 0.1 MBq of the respective compounds and co-incubated with (0.1 µM, 10 µM, 100 µM) etomidate to monitor the specific uptake (n = 3). c Cellular subfractionation of NCIH295 cells exposed to 0.1 MBq [^125I]IMTO, [^125I]IMAZA, [^125I]3, and [^125I]4 for 30 min at 37 °C. Distribution of the tracer compounds among the respective cellular subfractions

adrenal gland = test: Biodistribution in male CD-1 mice; type: in vivo; details: for Uptake in the adrenals: i.v. 0.1 MBq
Experimental: Six- to 8-week old male CD-1 mice received 0.1 MBq [^125I]IMTO [17] or the ^125I-labeled IMTO-analogues as intravenous injection in the tail vein. At predefined time points, mice were sacrificed (min. n = 5 per time point). Blood and urine were collected, and several organs were excised and weighed, and tracer uptake was determined by measurement in a γ-counter.
Fig. 4 Biodistribution of [^125I]IMTO and the new compounds [^125I]IMAZA, [^125I]3, and [^125I]4 in male CD-1 mice. Mice were injected i.v. with 0.1 MBq of respective compounds. Ex vivo organ dosimetry was performed at predefined time points 15 min, 30 min, 120 min, and 240 min after tracer injection. Results are expressed as percentage of injected dose per gram organ (%ID/g). Exact numbers on uptake in the adrenal as %ID/g for the compounds are given in the supplemental data

[3] = Metabolic inactivation by human liver microsomes in vitro (radio-HPLC); type: in vitro ADME; details: human liver microsomes, radio-HPLC
Experimental: Metabolic degradation was determined by co-incubation of the tracers with human liver microsomes (Sigma, M0317). Experiments were conducted in triplicates. Incubation mixtures consisted of liver microsomes (0.2 mg/ml), the respective ^125I-labeled compound (0.1 MBq), MgCl2 (3.3 mM), and NADPH (1.3 mM) in a total volume of 0.6 ml K3PO4 puffer (25 mM, pH 7.2). The reaction was started with the addition of NADPH and incubated at 37 °C. At predefined time points, aliquots were removed, and the reaction was terminated by adding 160 µL ice-cold methanol. After centrifugation (5000 × g, 4 °C for 4 min), the supernatant was analyzed by radio-HPLC (see experimental details and Supplementary Fig. 1 in Supplement).

NCI-H295 cells [4] = test: Cell uptake of 125I-labeled tracers in NCI-H295 cells, with and without etomidate; type: cell-based, human; set-up: Intracellular uptake with co-incubation of etomidate: dose or concentration left out as unconfirmed
Experimental: as §1
Fig. 3 a In vitro uptake kinetics of [^125I]IMTO, [^125I]IMAZA, [^125I]3, and [^125I]4 in NCI-H295 cells. b Cellular uptake of [^125I]IMTO, [^125I]IMAZA, [^125I]3, and [^125I]4 in NCI-H295 cells with and without co-incubation with etomidate. Cells […] (n = 3). c Cellular subfractionation of NCIH295 cells exposed to 0.1 MBq [^125I]IMTO, [^125I]IMAZA, [^125I]3, and [^125I]4 for 30 min at 37 °C. Distribution of the tracer compounds among the respective cellular subfractions

metastatic ACC = test: Dosimetry and endoradiotherapy with [131I]IMAZA in a patient with metastatic ACC; type: in vivo, human
Source text: Patient #1 had experienced disease progression with a more than fourfold increase in their dominant lesions within only 4 months after a phase of disease stabilization after standard treatment with mitotane and eight courses of combination chemotherapy with etoposide, doxorubicin, and cisplatin. They received therapeutic doses with 28.2 GBq [^131I]IMAZA 1 month and with 30.5 GBq [^131I]IMAZA 7 months after the evaluation with [^123I]IMAZA. Prior to the first treatment, the absorbed dose to the blood was measured with a tracer activity of 72 MBq [^131I]IMAZA as a surrogate for the exposure of the dose-limiting organ, the red bone marrow. The absorbed dose to the blood was estimated from assessments of the activity kinetics in total body and blood up to 48 h when the mean activity concentrations had dropped to 5% of the values at 5 min after the administration in the total body and to 1% in the blood. During therapy, the total body activity retention was measured with a survey meter in the ceiling over the patient’s bed. Gamma camera whole body scans accompanied by blood sampling were acquired starting 4 days post-administration after the first and 2 days after the second therapy until dismissal. SPECT/CT imaging was performed after 4 and 5 days, respectively.
Tumor evaluation was performed by [^18F]FDG PET/CT at baseline and 2, 5, 8, 11, 14, and 21 months after administration of the first treatment dose. Subsequently, the patient declined further follow-up imaging or additional therapeutic interventions.

[5] = three patients with advanced ACC
[6] = tumor lesion: patient #1, lesion #1
[7] = tumor lesion: patient #1, lesion #2
[8] = tumor lesion: patient #2, lesion #1
[9] = tumor lesion: patient #3, lesion #1
[10] = tumor lesion: patient #3, lesion #2
[11] = patient #1, pre-therapeutic kinetics assessment with [131I]IMAZA

COC(=O)c1cncn1[C@H](C)c1ccc([123I])cc1 [[^123I]IMTO, [^123I]iodometomidate]
AUC (time integral of the uptake function) (advanced ACC; median of five tumor lesions): 0.0024 h/g
effective half-live (advanced ACC; median of five tumor lesions): 11.0 h
uptake (advanced ACC; median of five tumor lesions): 0.011 %/g
Activity concentration in plasma, times higher than in whole blood (advanced ACC; patient #1, hematocrit 35%): 1.16 times
Residence time per liter of whole blood, times higher than for [123I]IMAZA (advanced ACC; [5]): 3.6 ± 1.5 times
Total body residence time, times higher than for [123I]IMAZA (advanced ACC; [5]): 2.2 ± 0.2 times
AUC (time integral of the uptake function) (advanced ACC; [6]): 0.0031 h/g
effective half-live (advanced ACC; [6]): 11.2 h
uptake (advanced ACC; tumor lesion: patient #1, lesion #1, SPECT/CT, normalised to administered activity): 0.015 %/g
AUC (time integral of the uptake function) (advanced ACC; [7]): 0.0024 h/g
effective half-live (advanced ACC; [7]): 11.0 h
uptake (advanced ACC; tumor lesion: patient #1, lesion #2, SPECT/CT): 0.011 %/g
AUC (time integral of the uptake function) (advanced ACC; [8]): 0.0016 h/g
effective half-live (advanced ACC; [8]): 12.4 h
uptake (advanced ACC; tumor lesion: patient #2, lesion #1, SPECT/CT): 0.006 %/g
AUC (time integral of the uptake function) (advanced ACC; [9]): 0.0017 h/g
effective half-live (advanced ACC; [9]): 8.0 h
uptake (advanced ACC; tumor lesion: patient #3, lesion #1, SPECT/CT): 0.010 %/g
AUC (time integral of the uptake function) (advanced ACC; [10]): 0.0056 h/g
effective half-live (advanced ACC; [10]): 10.1 h
uptake (advanced ACC; tumor lesion: patient #3, lesion #2, SPECT/CT): 0.027 %/g

C[C@H](c1ccc([125I])cc1)n1cncc1C(=O)N1CCC1 [[^125I]IMAZA]
Autoradiographic signal compared with [125I]IMTO ([1]; human adrenocortical tissue): distinctively stronger
Binding to control tissue (liver, kidney) ([1]; human liver n = 2, kidney n = 1): no binding was detected
Binding to ACC, APA, and CPA tissue ([1]; human tissue sections 20 µm, 0.1 MBq tracer, ± 10 µM non-radioactive compound): very strong and specific binding
Subcellular distribution compared with [125I]IMTO (NCI-H295 cells [2]; 30 min): similar
Uptake in the non-target organs (adrenal gland; male CD-1 mice): extremely low uptake values
Uptake in the adrenals (adrenal gland; male CD-1 mice, 15 min): 710.9 ± 210.5 %ID/g
Uptake in the adrenals (adrenal gland; male CD-1 mice, 30 min): 720.4 ± 169.7 %ID/g
Uptake in the adrenals (adrenal gland; male CD-1 mice, 120 min): 395.7 ± 92.7 %ID/g
Uptake in the adrenals (adrenal gland; male CD-1 mice, 240 min): 275.4 ± 124.1 %ID/g
Uptake at the latest time point, times higher compared to [125I]IMTO (adrenal gland; mice): 10 times
Tracer uptake and target to background ratios compared with [125I]IMTO (adrenal gland; mice biodistribution): higher tracer uptake with better target to background ratios
Metabolic stability compared with [125I]IMTO [3]: more than threefold longer half-life
Intracellular uptake with co-incubation of etomidate (NCI-H295 cells [4]; NCI-H295 cells): 8.6%
Uptake with co-incubation of etomidate (NCI-H295 cells [4]; NCI-H295 cells, highest concentration 100 µM etomidate): almost completely blocked
Intracellular uptake in NCI-H295 cells compared with [125I]IMTO (NCI-H295 cells [4]; at 30 min): highest uptake

COC(=O)c1cncn1C(C)c1ccc([125I])cc1 (stereo not drawn) [[^125I]IMTO, reference compound]
Accumulation in the cytosolic fraction (NCI-H295 cells [2]; 0.1 MBq, 30 min at 37 °C): 7%
Accumulation in the mitochondrial subfraction (NCI-H295 cells [2]; 0.1 MBq, 30 min at 37 °C): 59.4%
Accumulation in the nuclei, cell debris subfraction (NCI-H295 cells [2]; 0.1 MBq, 30 min at 37 °C): 33.6%
Uptake in the adrenals (adrenal gland; male CD-1 mice, 15 min): 491.2 ± 170.3 %ID/g
Uptake in the adrenals (adrenal gland; male CD-1 mice, 30 min): 321.3 ± 170.6 %ID/g
Uptake in the adrenals (adrenal gland; male CD-1 mice, 120 min): 80.5 ± 43.7 %ID/g
Uptake in the adrenals (adrenal gland; male CD-1 mice, 240 min): 27.4 ± 25.9 %ID/g
Intracellular uptake with co-incubation of etomidate (NCI-H295 cells [4]; NCI-H295 cells): 28.2%
Intracellular uptake in NCI-H295 cells (NCI-H295 cells [4]; after 30 min, 0.1 MBq tracer, 37 °C): 36.4%

C[C@H](c1ccc([131I])cc1)n1cncc1C(=O)N1CCC1 [[^131I]IMAZA]
Mean blood absorbed dose (advanced ACC; kinetics recalculated for 131I from 123I diagnostics in patients): 0.03 Gy/GBq
Long-term disease stabilization (progression-free survival) (metastatic ACC; patient #1, after first treatment): 21 months
Survival (overall survival) (metastatic ACC; patient #1, after initial endoradiotherapy): 30 months
Absorbed dose for both the liver and the kidney (metastatic ACC; patient #1, estimated): below 0.2 Gy/GBq
Absorbed dose to the blood (metastatic ACC; patient #1, first therapy with 28.2 GBq): 1.1 Gy
Activity giving an absorbed dose to the blood of 2 Gy (metastatic ACC; patient #1, pre-therapeutic kinetics assessment): 63 GBq
Absorbed dose to the blood (metastatic ACC; [11]): 0.032 Gy/GBq
Residence time in the whole blood (metastatic ACC; [11]): 0.17 h per liter of whole blood
Residence time in the total body (metastatic ACC; patient #1, pre-therapeutic kinetics assessment with tracer activity): 10.9 h
